Assay results from patent US7763615B2, “Ecteinascidin analogs for use as antitumour agents” (priority 2001, dated 2010).

Legend:
CYP3A4 = CYP3A4 (Homo sapiens, UniProt P08684); assay: in vitro; details: CYP3A4 (% inhibition)
H-MEC-1 = assay: Inhibition of cells growth by colorimetric assay (SRB), H-MEC-1; format: cell-based; details: Homo sapiens, HMEC-1, 48 h
How it was run: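 Absorbance at 490 nm of sulphorhodamine B bound by TCA-fixed cells gives the growth readout after 48 h continuous exposure to test samples (10 to 10^−8 μg/ml). Cells were seeded at 5×10^3 per well in RPMI 1640/10% FBS and allowed 18 h to attach first.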

[1] = system: H9c2 (2-1), normal rat cardiac muscle cells; details: 24 h
Protocol: (§2) In order to assess the cytotoxicity of the drugs to normal cells, we used 96 well plates plated at a density of 5000 cells per well (except for the FDC-P1 which were plated at 12,000 cells per well) with normal cell lines (ATCC, Table 1) maintained as per the directions of the ATCC: AML-12, normal mouse liver cells; NRK-52E, normal rat kidney cells; L8, normal rat skeletal muscle cells; FDC-P1, normal mouse myelogeous stem cells; and H9c2 (2-1), normal rat cardiac muscle cells. The cells in each plate were permitted to settle overnight before adding the test drug.
(§3) To each well (100 μl medium) 10 μl of drug in media was added at varying concentrations (1×10-10-0.01 mg/ml final concentration) and further incubated overnight at 37° C. with 5% CO2. After 24 h the following assays were performed. All experiments were repeated at least 3 times and were assayed in duplicate.
(§4) MTS assay (CellTiter 96 aqueous) was performed according to the manufacturer's (Promega) directions (for all cell types). Cell viability (mitochondrial activity) is determined via enzymatic conversion of the formazan substrate.

(HEPG2) = details: human, 24 h, 30 μM
[2] = system: NRK-52E, normal rat kidney cells; details: 24 h
physchem = details: pH 7.4, log D n-Octanol-Dulbecco's PBS pH 7.4
[3] = s9, 60 min, 1 μM
Protocol: The metabolic stability was determined used human liver S9 homogenate that including both microsomal and cytosolic enzyme activities. The test compound was diluted in methanol (0.625%) and acetonitrile (0.625%) at the concentration 1 μM and incubated in the human liver pool (protein=1 mg/mL) during 60 min at 37° C. Peak areas corresponding to all analytes (metabolic products) were determined by HPLC-MS/MS. Areas were recorded and ratios of peak areas of analytes to that of internal standard for each analyte were determined. The ratio of precursor compound remaining after 60 minutes and the amount remaining at time zero, expressed as percent, are reported as metabolic stability. Higher values mean higher metabolic stability.

CYP2D6 = CYP2D6 (Homo sapiens, UniProt P10635); assay: in vitro; details: CYP2D6 (% inhibition)
Chain of CYP2D6 (P10635 whole entry): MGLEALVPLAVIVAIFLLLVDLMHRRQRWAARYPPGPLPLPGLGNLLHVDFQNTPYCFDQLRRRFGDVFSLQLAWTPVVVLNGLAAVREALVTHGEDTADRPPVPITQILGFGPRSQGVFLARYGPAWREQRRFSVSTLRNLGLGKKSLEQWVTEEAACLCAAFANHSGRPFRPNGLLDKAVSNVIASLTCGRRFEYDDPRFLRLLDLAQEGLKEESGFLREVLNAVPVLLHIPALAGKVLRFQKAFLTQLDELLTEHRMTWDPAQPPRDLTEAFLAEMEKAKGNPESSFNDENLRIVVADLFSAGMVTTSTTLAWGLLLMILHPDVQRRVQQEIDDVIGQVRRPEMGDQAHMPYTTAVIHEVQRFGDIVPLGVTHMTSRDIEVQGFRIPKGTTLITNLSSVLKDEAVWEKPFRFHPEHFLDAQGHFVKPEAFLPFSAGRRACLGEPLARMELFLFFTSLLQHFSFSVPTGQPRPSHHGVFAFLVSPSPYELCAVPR

[4] = system: L8, normal rat skeletal muscle cells; details: 24 h
Protocol: as §2, §3, §4

[5] = system: AML-12, normal mouse liver cells; details: 24 h
[6] = system: FDC-P1, normal mouse myelogeous stem cells; details: 24 h
IGROV = assay: cells; format: cell-based; details: Homo sapiens, 48 h
How it was run: (§1)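 Seeding density 5×10^3 cells/well; attachment 18 h in drug-free medium; exposure 48 h, 10 to 10^−8 μg/ml. Fixation cold TCA 60 min at 4° C, SRB 10 min, absorbance 490 nm.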

K562 = assay: cells; format: cell-based; details: Homo sapiens, K562, 48 h
How it was run: as §1

HT29 = assay: cells; format: cell-based; details: Homo sapiens, HT-29, 48 h
How it was run: as §1

DU145 = assay: cells; format: cell-based; details: Homo sapiens, DU-145, 48 h
How it was run: as §1

LOVO-DOX = assay: cells; format: cell-based; details: Homo sapiens, 48 h
How it was run: as §1

PANC-1 = assay: cells; format: cell-based; details: Homo sapiens, PANC-1, 48 h
How it was run: as §1

SK-BR3 = assay: cells; format: cell-based; details: Homo sapiens, SK-BR-3, 48 h
How it was run: as §1

MEL-28 = assay: cells; format: cell-based; details: Homo sapiens, SK-MEL-28, 48 h
How it was run: as §1

A549 = assay: cells; format: cell-based; details: Homo sapiens, A549, 48 h
How it was run: as §1

LOVO = assay: cells; format: cell-based; details: Homo sapiens, LoVo, 48 h
How it was run: as §1

IGROV-ET = assay: cells; format: cell-based; details: Homo sapiens, 48 h
How it was run: as §1

LNCAP = assay: cells; format: cell-based; details: Homo sapiens, LNCaP, 48 h
How it was run: as §1

[7] = H-MEC-1, 48 hours exposure, SRB
[8] = LOVO-DOX, 48 hours exposure, SRB
[9] = IGROV-ET, 48 hours exposure, SRB

Chain of CYP3A4 (P08684 whole entry): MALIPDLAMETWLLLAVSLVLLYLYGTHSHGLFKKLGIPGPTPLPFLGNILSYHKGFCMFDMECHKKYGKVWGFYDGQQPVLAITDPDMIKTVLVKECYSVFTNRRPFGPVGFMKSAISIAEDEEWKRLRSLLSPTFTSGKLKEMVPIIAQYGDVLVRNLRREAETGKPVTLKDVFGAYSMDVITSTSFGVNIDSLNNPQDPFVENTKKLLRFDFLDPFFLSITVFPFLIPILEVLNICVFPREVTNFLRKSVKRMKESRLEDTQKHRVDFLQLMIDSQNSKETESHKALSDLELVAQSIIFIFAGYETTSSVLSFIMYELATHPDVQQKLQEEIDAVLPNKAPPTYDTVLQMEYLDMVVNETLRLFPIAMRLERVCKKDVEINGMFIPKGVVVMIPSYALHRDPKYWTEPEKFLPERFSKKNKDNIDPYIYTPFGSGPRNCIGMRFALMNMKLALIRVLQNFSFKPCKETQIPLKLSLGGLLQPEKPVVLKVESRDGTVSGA

COc1c(C)cc2c(c1O)[C@@H]1C3[C@@H]4SC[C@]5(NCCc6c5[nH]c5c(C)cccc65)C(=O)COC[C@@H](c5c6c(c(C)c(OC(C)=O)c54)OCO6)N3[C@@H](O)[C@H](C2)N1C (stereo partly shown) [Compound 36]
inhibition at 30 min, 10 µM (CYP3A4): 78%
GI50 (H-MEC-1; [7]): 0.0843 µM
IC (TGI) (H-MEC-1; [7]): 0.783 µM
CC50 (H-MEC-1; read-out: LC50, H-MEC-1, 48 hours exposure, SRB): 13 µM
Heart [1]: 8.86E−07
Cell Viability (% inhibition) ((HEPG2)): 33 % inhibition
Kidney [2]: 3.56E−07
logD at 60 min (physchem): > 4.4
Human Liver S9 Metabolic Stability (% remaining) [3]: 2 % remaining
inhibition at 450 min, 10 µM (CYP2D6): 15%
Skeletal [4]: 2.71E−08
Liver [5]: 3.19E−07
Myelo [6]: 2.05E−07
GI50 (IGROV; 48 hours exposure, SRB): 0.00372 µM
IC (TGI) (IGROV; 48 hours exposure, SRB): 0.00721 µM
CC50 (IGROV; read-out: LC50, IGROV, 48 hours exposure, SRB): 0.0271 µM
GI50 (K562; K562, 48 hours exposure, SRB): 0.00615 µM
IC (TGI) (K562; K562, 48 hours exposure, SRB): 0.00992 µM
CC50 (K562; read-out: LC50, K562, 48 hours exposure, SRB): 0.109 µM
GI50 (HT29; HT29, 48 hours exposure, SRB): 0.0618 µM
IC (TGI) (HT29; HT29, 48 hours exposure, SRB): 0.187 µM
CC50 (HT29; read-out: LC50, HT29, 48 hours exposure, SRB): 13 µM
GI50 (DU145; DU145, 48 hours exposure, SRB): 0.00541 µM
IC (TGI) (DU145; DU145, 48 hours exposure, SRB): 0.00939 µM
CC50 (DU145; read-out: LC50, DU145, 48 hours exposure, SRB): 13 µM
GI50 (LOVO-DOX; [8]): 0.0704 µM
IC (TGI) (LOVO-DOX; [8]): 0.977 µM
CC50 (LOVO-DOX; read-out: LC50, LOVO-DOX, 48 hours exposure, SRB): 13 µM
GI50 (PANC-1; PANC-1, 48 hours exposure, SRB): 0.0421 µM
IC (TGI) (PANC-1; PANC-1, 48 hours exposure, SRB): 0.104 µM
CC50 (PANC-1; read-out: LC50, PANC-1, 48 hours exposure, SRB): 13 µM
GI50 (SK-BR3; SK-BR3, 48 hours exposure, SRB): 0.0118 µM
IC (TGI) (SK-BR3; SK-BR3, 48 hours exposure, SRB): 0.032 µM
CC50 (SK-BR3; read-out: LC50, SK-BR3, 48 hours exposure, SRB): 0.0864 µM
GI50 (MEL-28; MEL-28, 48 hours exposure, SRB): 0.00216 µM
IC (TGI) (MEL-28; MEL-28, 48 hours exposure, SRB): 0.00523 µM
CC50 (MEL-28; read-out: LC50, MEL-28, 48 hours exposure, SRB): 0.0126 µM
GI50 (A549; A549, 48 hours exposure, SRB, read-out: GI50): 0.0284 µM
IC (TGI) (A549; A549, 48 hours exposure, SRB, read-out: TGI): 0.0507 µM
CC50 (A549; read-out: LC50, A549, 48 hours exposure, SRB): 0.0909 µM
GI50 (LOVO; 48 hours exposure, SRB): 0.0273 µM
IC (TGI) (LOVO; 48 hours exposure, SRB): 0.0546 µM
CC50 (LOVO; read-out: LC50, LOVO, 48 hours exposure, SRB): 0.109 µM
GI50 (IGROV-ET; [9]): 0.0503 µM
IC (TGI) (IGROV-ET; [9]): 0.103 µM
CC50 (IGROV-ET; read-out: LC50, IGROV-ET, 48 hours exposure, SRB): 0.13 µM
GI50 (LNCAP; 48 hours exposure, SRB): 0.00614 µM
IC (TGI) (LNCAP; 48 hours exposure, SRB): 0.00948 µM
CC50 (LNCAP; read-out: LC50, LNCAP, 48 hours exposure, SRB): 0.0251 µM
